System: hPSC lines P11032, SA181 and P11012
Assay: DE differentiation of 3 hPSC lines with 5-aza-2-deoxycytidine or 5-azacytidine, qRT-PCR marker expression (Example 5)
Format: cell-based, human
Details: 1 μM on day 2-3
Protocol: Following the basic protocols A (hPSC lines P11032, and SA181) or B (hPSC line P11012), cells derived from 3 different hPSC lines were treated with either 10 nM 5-aza-2-deoxycytidine or 1 μM 5-azacytidine on day 2-3 during the hPS differentiation into definitive endodem.
For analysis of mRNA expression, hESC- and hiPSC-derived DE-cells were harvested on day 7 of the protocol and gene expression was analysed using qRT-PCR, normalised to the house-keeping gene CREBBP, and the results presented as relative quantification normalised to a calibrator.

Nc1ncn([C@@H]2O[C@H](CO)[C@@H](O)[C@H]2O)c(=O)n1 [5-azacytidine]
mRNA expression of the DE marker Cxcr4 (day 7): No significant changes
mRNA expression of the DE marker Sox17 (day 7): No significant changes
Nanog mRNA (day 7, vs without treatment): significantly decreased
Oct4 mRNA (day 7, vs without treatment): significantly decreased
Homogeneity of derived DE population (lines give heterogeneous DE if untreated): allowed derivation of a homogeneous DE population
